Measured values from ChEMBL document CHEMBL5344445, “Profiling the Linear Peptides of Venom from the Brazilian Scorpion Tityus serrulatus: Structural and Functional Characterization” (J Nat Prod, 2024).
Calls of active or inactive are those of the source. The calls are words filed in the database; no cut-off is given here. Peptide text beside a SMILES is read from it.

Key:
[1] = tested on: Erythrocyte; assay: (§1) Hemolytic activity in Wistar rat RBC at 5 to 500 uM incubated for 120 mins; format: toxicity, cell-based; conditions: erythrocyte, 2 h, 500 µM, dose 5-500 µM
[2] = Induction of Wistar rat mast cell degranulation assessed as beta-D-glusosaminidase release at 5 to 500 uM incubated for 15 mins relative to control; format: toxicity, cell-based; conditions: 0.25 h, dose 5-500 µM
[3] = Induction of Wistar rat mast cell lysis assessed as LDH release at 5 to 500 uM incubated for 5 mins in presence of NADH relative to control; format: toxicity, cell-based; conditions: dose 5-500 µM
[4] = tested on: Escherichia coli; assay: Antibacterial activity against Escherichia coli; format: functional, organism-based
[5] = tested on: Klebsiella aerogenes; assay: Antibacterial activity against Enterobacter aerogenes; format: functional, organism-based
[6] = tested on: Staphylococcus aureus; assay: Antibacterial activity against Staphylococcus aureus; format: functional, organism-based
[7] = tested on: Streptococcus pneumoniae; assay: Antibacterial activity against Streptococcus pneumoniae; format: functional, organism-based
[8] = Induction of edema formation in Swiss mouse at 2 ug, I.PL measured after 60 mins relative to control; format: toxicity; conditions: in vivo, other, 1 h
[9] = Induction of edema formation in Swiss mouse at 2 ug, I.PL measured after 180 mins relative to control; format: toxicity; conditions: in vivo, other, 3 h
[10] = Induction of edema formation in Swiss mouse at 2 ug, I.PL measured after 300 mins relative to control; format: toxicity; conditions: in vivo, other, 5 h
[11] = Induction of nociception in Swiss mouse at 2 ug, I.PL incubated for 180 mins by von frey test relative to control; format: toxicity; conditions: in vivo, other, 3 h
[12] = Induction of nociception in Swiss mouse at 2 ug, I.PL incubated for 60 mins by von frey test relative to control; format: toxicity; conditions: in vivo, other, 1 h
[13] = Induction of nociception in Swiss mouse at 2 ug, I.PL incubated for 300 mins by von frey test relative to control; format: toxicity; conditions: in vivo, other, 5 h
[14] = Effect on rearing activity in Swiss mouse assessed as increase in frequency at 2 ug, I.PL incubated for 3 to 15 mins by open field test relative to control; format: toxicity; conditions: in vivo, other, time 3-15 min
[15] = Effect on locomotory activity in Swiss mouse assessed as decrease in frequency at 2 ug, I.PL incubated for 3 to 15 mins by open field test relative to control; format: toxicity; design: scale not given: the % may be the effect or the level left; conditions: in vivo, other, time 3-15 min
[16] = as §1; format: toxicity, cell-based, Erythrocyte; conditions: Wistar, red blood cells (erythrocytes), dose 5-500 µM, read-out: Activity

Compound | Activity [1] | Activity [2] | Activity [3] | Activity [4] | Activity [5] | Activity [6] | Activity [7] | Activity ([8]; dose 2 µg) | Activity ([9]; dose 2 µg) | Activity ([10]; dose 2 µg) | Activity ([11]; dose 2 µg) | Activity ([12]; dose 2 µg) | Activity ([13]; dose 2 µg) | Activity ([14]; dose 2 µg) | Activity ([15]; dose 2 µg) | Activity ([11]; at 2 µg) | Activity ([12]; at 2 µg) | Activity ([13]; at 2 µg) | Activity ([14]; at 2 µg) | Activity ([15]; at 2 µg) | also measured
CC(C)C[C@H](NC(=O)CNC(=O)CNC(=O)[C@H](Cc1c[nH]cn1)NC(=O)[C@H](CC(=O)O)NC(=O)CNC(=O)[C@H](CO)NC(=O)[C@H](CC(C)C)NC(=O)[C@H](CC(C)C)NC(=O)[C@H](C)NC(=O)[C@H](CC(=O)O)NC(=O)[C@H](CS)NC(=O)CN)C(=O)N[C@@H](CC(C)C)C(=O)N[C@@H](CO)C(=O)N[C@@H](C)C(=O)N[C@@H](CC(N)=O)C(=O)NCC(=O)N[C@@H](CS)C(=O)O (H-GCDALLSGDHGGLLSANGC-OH) | Non-Toxic | Non-Toxic | Non-Toxic | inactive | inactive | inactive | inactive | Non-Toxic | Non-Toxic | Non-Toxic | Non-Toxic | Non-Toxic | Non-Toxic | Non-Toxic | Non-Toxic |  |  |  |  |  | 
H-AEIDFSGIPEDIIKQI-OH | Non-Toxic | Non-Toxic | Non-Toxic | inactive | inactive | inactive | inactive | Non-Toxic | Non-Toxic | Non-Toxic |  |  |  |  |  | 71% | 71% | 71% | <= 40% | <= 40% | 
H-DEGPKSDCKP-OH |  | Non-Toxic | Non-Toxic | inactive | inactive | inactive | inactive |  |  |  |  |  |  |  | Non-Toxic | 71% | 71% | 71% | 41% |  | hemolysis at 2 h, up to 500 µM [16]: ≤ 40%; Activity ([8]; at 2 µg): 71%; Activity ([9]; at 2 µg): 71%; Activity ([10]; at 2 µg): 71%
H-GKGKEILGK-OH | Non-Toxic | Non-Toxic | Non-Toxic | inactive | inactive | inactive | inactive | Non-Toxic | Non-Toxic | Non-Toxic | Non-Toxic | Non-Toxic | Non-Toxic | Non-Toxic | Non-Toxic |  |  |  |  |  | 
H-GLREKHVQ-OH | Non-Toxic | Non-Toxic | Non-Toxic | inactive | inactive | inactive | inactive | Non-Toxic | Non-Toxic | Non-Toxic | Non-Toxic | Non-Toxic | Non-Toxic | Non-Toxic |  |  |  |  |  | <= 40% | 
H-ILPNDK-OH |  | Non-Toxic | Non-Toxic | inactive | inactive | inactive | inactive | Non-Toxic | Non-Toxic | Non-Toxic | Non-Toxic | Non-Toxic | Non-Toxic | Non-Toxic | Non-Toxic |  |  |  |  |  | hemolysis at 2 h, up to 500 µM [16]: ≤ 40%
H-ILTGKLKCK-OH | Non-Toxic | Non-Toxic | Non-Toxic | inactive | inactive | inactive | inactive |  | Non-Toxic | Non-Toxic |  |  |  | Non-Toxic | Non-Toxic | 41% | 41% | 41% |  |  | Activity ([8]; at 2 µg): 71%
H-IPEDIIKK-OH |  | <= 40% | <= 40% | inactive | inactive | inactive | inactive | Non-Toxic | Non-Toxic | Non-Toxic | Non-Toxic | Non-Toxic | Non-Toxic | Non-Toxic | Non-Toxic |  |  |  |  |  | hemolysis at 2 h, up to 500 µM [16]: ≤ 40%
H-KETNAKPPA-OH | Non-Toxic | Non-Toxic | Non-Toxic | inactive | inactive | inactive | inactive | Non-Toxic | Non-Toxic | Non-Toxic |  |  |  |  |  | 71% | 41% | 71% | <= 40% | <= 40% | 
H-KHFGKDSNFPF-NH2 | Non-Toxic | Non-Toxic | Non-Toxic | inactive | inactive | inactive | inactive | Non-Toxic | Non-Toxic | Non-Toxic | Non-Toxic | Non-Toxic | Non-Toxic | Non-Toxic |  |  |  |  |  | <= 40% | 
H-KPVEPVG-OH | Non-Toxic | Non-Toxic | Non-Toxic | inactive | inactive | inactive | inactive | Non-Toxic | Non-Toxic | Non-Toxic |  |  |  |  | Non-Toxic | <= 40% | <= 40% | <= 40% | 41% |  | 
H-SESNTCG-OH | Non-Toxic | Non-Toxic | Non-Toxic | inactive | inactive | inactive | inactive | Non-Toxic | Non-Toxic | Non-Toxic |  |  |  |  | Non-Toxic | <= 40% | <= 40% | <= 40% | <= 40% |  | 
